pKd: −log10 of the molar value.
What was measured:
[1] = target: Mitogen-activated protein kinase 10 (Homo sapiens, UniProt P53779); experiment: Binding affinity to JNK3 (39 to 402 residues) (unknown origin) expressed in Escherichia coli BL21(DE3) assessed as dissociation constant by isothermal titration calorimetry assay; settings: for pKd: read-out: Kd
[2] = target: Mitogen-activated protein kinase 8 (Homo sapiens, UniProt P45983); experiment: Binding affinity to JNK1 (2 to 364 residues) (unknown origin) expressed in Escherichia coli BL21(DE3) assessed as dissociation constant by isothermal titration calorimetry assay; settings: for pKd: read-out: Kd
[3] = Stability of the compound in PBS buffer assessed as half life at 250 uM at pH 7.4 in presence of GSH by HPLC analysis; assay type: physicochemical; settings: pH 7.4, 250 µM

Mitogen-activated protein kinase 8, sequence (P45983 whole entry, the tested form may be a part): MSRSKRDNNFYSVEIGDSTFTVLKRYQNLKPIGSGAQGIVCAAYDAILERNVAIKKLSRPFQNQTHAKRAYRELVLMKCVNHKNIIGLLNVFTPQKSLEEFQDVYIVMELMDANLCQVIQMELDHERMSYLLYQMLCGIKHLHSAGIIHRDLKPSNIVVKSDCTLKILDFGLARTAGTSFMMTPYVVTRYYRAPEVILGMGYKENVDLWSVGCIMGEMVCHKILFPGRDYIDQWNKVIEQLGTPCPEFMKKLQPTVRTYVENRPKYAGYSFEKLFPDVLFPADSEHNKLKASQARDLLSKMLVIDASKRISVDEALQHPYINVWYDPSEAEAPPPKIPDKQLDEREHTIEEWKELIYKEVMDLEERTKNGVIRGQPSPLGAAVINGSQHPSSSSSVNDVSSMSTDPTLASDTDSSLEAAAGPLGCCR
Mitogen-activated protein kinase 10, sequence (P53779 whole entry, the tested form may be a part): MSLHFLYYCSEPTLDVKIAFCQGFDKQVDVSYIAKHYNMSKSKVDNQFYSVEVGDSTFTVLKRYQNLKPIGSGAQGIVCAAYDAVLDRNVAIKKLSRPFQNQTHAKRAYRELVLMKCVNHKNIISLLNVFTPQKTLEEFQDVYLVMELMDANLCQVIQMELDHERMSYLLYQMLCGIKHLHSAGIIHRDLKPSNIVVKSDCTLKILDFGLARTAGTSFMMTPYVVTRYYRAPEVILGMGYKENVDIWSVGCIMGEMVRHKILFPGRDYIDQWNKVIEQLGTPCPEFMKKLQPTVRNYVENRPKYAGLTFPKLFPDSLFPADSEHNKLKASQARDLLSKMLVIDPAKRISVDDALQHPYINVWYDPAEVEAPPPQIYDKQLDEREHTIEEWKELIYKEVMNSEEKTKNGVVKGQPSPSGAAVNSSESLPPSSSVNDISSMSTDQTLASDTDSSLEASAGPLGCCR

Kd [1]	pKd [2]	pKd [1]	t1/2 [3] [days]	Kd [2]	SMILES
Not Active	3.79				Nc1nnc(-c2ccncc2)s1
	< 3.00	< 3.00			O=C(c1cnc2ccccn12)C(F)(F)Cl
		< 3.00	10.8	Not Active	O=C(Nc1ccc2c(c1)OCO2)C(F)(F)Cl
			> 50		O=C(Nc1ccc2c(c1)OCO2)C(F)F
			0.221		NC(=O)Nc1ccc(OC(F)(F)Br)cc1
Not Active			12.1	Not Active	O=C(Nc1ccc2c(c1)OCO2)C(F)(F)I
Not Active				Not Active	COC(=O)c1scc(C)c1NC(=O)C(F)(F)Cl
Not Active				Not Active	CCOC(=O)c1cnn(C)c1NC(=O)C(F)(F)Cl
			0.3		NC(=O)Nc1ccc(OC(F)(F)I)cc1
	4.82	4.77			O=C(Nc1nnc(-c2ccncc2)s1)C(F)(F)Br
Not Active				Not Active	O=C(Nc1ccc(F)cc1)C(F)(F)Br
			> 50		NC(=O)Nc1ccc(OC(F)F)cc1
Not Active				Not Active	NC(=O)Nc1ccc(NC(=O)C(F)(F)Br)cc1
Not Active				Not Active	CCOC(=O)c1c(NC(=O)C(F)(F)Br)sc2c1CCCC2
Not Active				Not Active	O=C(NCCc1c[nH]c2ccccc12)C(F)(F)Cl
	5.00	4.89			O=C(Nc1nnc(-c2ccncc2)s1)C(F)(F)I
			5.42		O=C(Nc1ccc2c(c1)OCO2)C(F)(F)F
			> 50		NC(=O)Nc1ccc(OC(F)(F)Cl)cc1
	4.70	4.64			O=C(Nc1nnc(-c2ccncc2)s1)C(F)(F)Cl
Not Active				Not Active	O=C(Nc1ccc(O)c(O)c1)C(F)(F)Cl
Not Active				Not Active	O=C(Nc1cccc2nsnc12)C(F)(F)Br
Not Active				Not Active	O=C(Nc1ccc(Cn2cncn2)cc1)C(F)(F)Br
Not Active				Not Active	O=C(Nc1nnc(-c2ccc([N+](=O)[O-])cc2)o1)C(F)(F)Br
Not Active				Not Active	O=C(c1ccco1)N1CCN(C(=O)C(F)(F)Br)CC1
			> 50		NC(=O)Nc1ccc(OC(F)(F)F)cc1
	< 3.00	< 3.00	11.7		O=C(Nc1ccc2c(c1)OCO2)C(F)(F)Br

SMILES	Kd [1]	pKd [2]	pKd [1]	t1/2 [3] [days]	Kd [2]
O=C(Nc1nncs1)C(F)(F)I		3.98	3.73		
O=C(Nc1nccs1)C(F)(F)Br		< 3.00	< 3.00		
O=C(Nc1nncs1)C(F)(F)Br		3.71	3.61		
O=C(Nc1nncs1)C(F)(F)Cl		3.73	3.61		
